Experimental data taken from patent US4356186A, “Acetic acid derivatives and composition containing the same” (priority 1980, dated 1982).
Read-outs that look alike come from different tables or passages of the source.

Tests used:
[1] = system: carrageenin-induced hind paw edema; test: Anti-inflammatory activity (carrageenin-induced hind paw edema in rats); assay type: in vivo, Male Wistar rats; conditions: for inhibition in vivo at 1 mg/kg / inhibition in vivo at 2 mg/kg / inhibition in vivo at 4 mg/kg / inhibition in vivo at 8 mg/kg / inhibition in vivo at 0.5 mg/kg / inhibition in vivo at 80 mg/kg / inhibition in vivo at 5 mg/kg / inhibition in vivo at 20 mg/kg / inhibition in vivo at 40 mg/kg / inhibition in vivo at 160 mg/kg / inhibition in vivo at 10 mg/kg: Rattus norvegicus, po; for inhibition in vivo at 1 mg/kg: 1 mg/kg p.o.; for inhibition in vivo at 4 mg/kg: 4 mg/kg p.o.; for inhibition in vivo at 8 mg/kg: 8 mg/kg p.o.; for inhibition in vivo at 0.5 mg/kg: 0.5 mg/kg p.o.; for anti-inflammatory activity compared with the known indomethacin / anti-inflammatory activity compared with the known aspirin: in words, from Table 1; for inhibition in vivo at 10 mg/kg: 10 mg/kg p.o.
Method: Anti-inflammatory activity (carrageenin-induced hind paw edema in rats)
The test was carried out in a similar manner as disclosed in Proc. Soc. Exptl.
Male Wistar rats, weighing 100-300 g, were used. A 1% aqueous carrageenin solution (0.1 ml) was administered subcutaneously into the hind foot pad of rats. Two and three hours after the carrageenin injection, the paw volume was measured and the swelling rate was calculated based on the paw volume before the carrageenin injection. The inhibitory rate was determined as compared with the average swelling rate of the control group to which only vehicle was administered. The test compounds were administered orally one hour before the carrageenin injection.

[2] = system: stomach ulcer; test: Gastrointestinal ulcerogenicity; assay type: in vivo, Male Wistar rats; set-up: key to Average score of stomach ulcer: ulcer score 1 to 4, 4 = most severe ulcer; conditions: after 6 hours; for Average score of stomach ulcer: score 1 to 4
Method: Gastrointestinal ulcerogenicity
The test was carried out in a similar manner as disclosed in Arzneim. Forsch., 19, 36 (1969).
Male Wistar rats, weighing 130-180 g, were used. After the rats were fasted for 24 hours, the test compound was orally administered one time. After 6 hours, the rats were killed and the stomach was removed. […] The degree of stomach ulcer was scored from 1 to 4, wherein 4 is the most severe ulcer. In Table 2, there are shown the average score of stomach ulcer in each dose and also the ratio of the number of rats having a score of stomach ulcer of 2 or more to total number of rats used.

[3] = 2 h, two hours, read-out: Inhibitory rate, two hours after the carrageenin injection
[4] = 2 h, 2 mg/kg p.o., two hours, read-out: Inhibitory rate, two hours after the carrageenin injection
[5] = 3 h, three hours, read-out: Inhibitory rate, three hours after the carrageenin injection
[6] = 3 h, 2 mg/kg p.o., three hours, read-out: Inhibitory rate, three hours after the carrageenin injection
[7] = 2 h, 80 mg/kg p.o., two hours, read-out: Inhibitory rate, two hours after the carrageenin injection
[8] = 3 h, 80 mg/kg p.o., three hours, read-out: Inhibitory rate, three hours after the carrageenin injection
[9] = 2 h, read-out: Inhibitory rate, two hours after the carrageenin injection
[10] = 3 h, read-out: Inhibitory rate, three hours after the carrageenin injection
[11] = 2 h, 40 mg/kg p.o., two hours, read-out: Inhibitory rate, two hours after the carrageenin injection
[12] = 3 h, 40 mg/kg p.o., three hours, read-out: Inhibitory rate, three hours after the carrageenin injection
[13] = 2 h, 5 mg/kg p.o., two hours, read-out: Inhibitory rate, two hours after the carrageenin injection
[14] = 3 h, 5 mg/kg p.o., three hours, read-out: Inhibitory rate, three hours after the carrageenin injection

CC(C(N)=O)c1ccc2c(c1)SCC1CCCCC1C2=O (single isomer, unassigned) [R, 2-(6,6a,7,8,9,10,10a,11-Octahydro-11-oxodibenzo[b,e]thiepin-3-yl)propionamide-A]
inhibition in vivo at 1 mg/kg [1, 3]: 29.3% | inhibition in vivo at 2 mg/kg [1, 4]: 30.7% | inhibition in vivo at 4 mg/kg [1, 3]: 38.4% | inhibition in vivo at 8 mg/kg [1, 3]: 43.6% | inhibition in vivo at 1 mg/kg [1, 5]: 24.7% | inhibition in vivo at 2 mg/kg [1, 6]: 27.6% | inhibition in vivo at 4 mg/kg [1, 5]: 37.7% | inhibition in vivo at 8 mg/kg [1, 5]: 36% | Number of rats having a score of stomach ulcer of 2 or more/total number of rats used ([2]; 8 mg/kg p.o.): 0/3 | Average score of stomach ulcer ([2]; 8 mg/kg p.o.): 0.00 | Number of rats having a score of stomach ulcer of 2 or more/total number of rats used ([2]; 16 mg/kg p.o.): 4/6 | Average score of stomach ulcer ([2]; 16 mg/kg p.o.): 1.67 | Number of rats having a score of stomach ulcer of 2 or more/total number of rats used ([2]; 32 mg/kg p.o.): 3/3 | Average score of stomach ulcer ([2]; 32 mg/kg p.o.): 2.33

CC(C(=O)O)c1ccc2c(c1)OCC1CCCCC1C2=O (stereo not shown) [A, 2-(6,6a,7,8,9,10,10a,11-Octahydro-11-oxodibenz[b,e]oxepin-3-yl)propionicacid]
inhibition in vivo at 0.5 mg/kg [1, 3]: 23.7% | inhibition in vivo at 1 mg/kg [1, 3]: 34.3% | inhibition in vivo at 2 mg/kg [1, 4]: 40.5% | inhibition in vivo at 0.5 mg/kg [1, 5]: 17.4% | inhibition in vivo at 1 mg/kg [1, 5]: 26.9% | inhibition in vivo at 2 mg/kg [1, 6]: 32.6% | anti-inflammatory activity compared with the known indomethacin [1]: comparable or superior to that of the known indomethacin

O=C(O)Cc1ccc2c(c1)OCC1CCCCC1C2=O (stereo not shown) [B, 6,6a,7,8,9,10,10a,11-Octahydro-11-oxodibenz[b,e]oxepin-3-acetic acid]
inhibition in vivo at 1 mg/kg [1, 3]: 17.8% | inhibition in vivo at 1 mg/kg [1, 5]: 7.8% | anti-inflammatory activity compared with the known indomethacin [1]: comparable or superior to that of the known indomethacin

CC(C(=O)O)c1ccc2c(c1)C(=O)C1CCCCC1CO2 (stereo not shown) [C, 2-(6,6a,7,8,9,10,10a,11-Octahydro-11-oxodibenz[b,e]oxepin-2-yl)propionicacid]
inhibition in vivo at 80 mg/kg [1, 7]: 27.9% | inhibition in vivo at 80 mg/kg [1, 8]: 23.1% | anti-inflammatory activity compared with the known aspirin [1]: comparable or superior to that of the known aspirin

COc1ccc2c(c1)c(CC(=O)O)c(C)n2C(=O)c1ccc(Cl)cc1 [Compound 1, Indomethacin, reference compound]
inhibition in vivo at 2 mg/kg [1, 9]: 20.5% | inhibition in vivo at 5 mg/kg [1, 9]: 42.4% | inhibition in vivo at 2 mg/kg [1, 10]: 19.3% | inhibition in vivo at 5 mg/kg [1, 10]: 36.3% | Average score of stomach ulcer ([2]; 4 mg/kg p.o.): 0.50 | Average score of stomach ulcer ([2]; 8 mg/kg p.o.): 1.78 | Average score of stomach ulcer ([2]; 16 mg/kg p.o.): 2.56

CC(=O)Oc1ccccc1C(=O)O [Compound 2, Aspirin, reference compound]
inhibition in vivo at 20 mg/kg [1, 9]: 14.1% | inhibition in vivo at 40 mg/kg [1, 9]: 22.9% | inhibition in vivo at 80 mg/kg [1, 9]: 30.8% | inhibition in vivo at 160 mg/kg [1, 9]: 35.1% | inhibition in vivo at 20 mg/kg [1, 10]: 9% | inhibition in vivo at 40 mg/kg [1, 10]: 21.2% | inhibition in vivo at 80 mg/kg [1, 10]: 25.9% | inhibition in vivo at 160 mg/kg [1, 10]: 30.9% | Number of rats having a score of stomach ulcer of 2 or more/total number of rats used ([2]; 20 mg/kg p.o.): 0/6 | Average score of stomach ulcer ([2]; 20 mg/kg p.o.): 0.83 | Number of rats having a score of stomach ulcer of 2 or more/total number of rats used ([2]; 40 mg/kg p.o.): 3/6 | Average score of stomach ulcer ([2]; 40 mg/kg p.o.): 1.33 | Number of rats having a score of stomach ulcer of 2 or more/total number of rats used ([2]; 60 mg/kg p.o.): 5/6 | Average score of stomach ulcer ([2]; 60 mg/kg p.o.): 2.33 | Number of rats having a score of stomach ulcer of 2 or more/total number of rats used ([2]; 80 mg/kg p.o.): 5/6 | Average score of stomach ulcer ([2]; 80 mg/kg p.o.): 3.33 | Number of rats having a score of stomach ulcer of 2 or more/total number of rats used ([2]; 160 mg/kg p.o.): 6/6 | Average score of stomach ulcer ([2]; 160 mg/kg p.o.): 4.00

CC(C(=O)O)c1ccc2c(c1)C(=O)C1CCCCC1CS2 (stereo not shown) [D, 2-(6,6a,7,8,9,10,10a,11-Octahydro-11-oxodibenzo[b,e]thiepin-2-yl)propionicacid]
inhibition in vivo at 40 mg/kg [1, 11]: 28.6% | inhibition in vivo at 80 mg/kg [1, 7]: 34% | inhibition in vivo at 40 mg/kg [1, 12]: 24.6% | inhibition in vivo at 80 mg/kg [1, 8]: 27.1% | anti-inflammatory activity compared with the known aspirin [1]: comparable or superior to that of the known aspirin

O=C(O)Cc1ccc2c(c1)SCC1CCCCC1C2=O (stereo not shown) [E, 6,6a,7,8,9,10,10a,11-Octahydro-11-oxodibenzo[b,e]thiepin-3-acetic acid]
inhibition in vivo at 2 mg/kg [1, 4]: 26.3% | inhibition in vivo at 2 mg/kg [1, 6]: 16.8% | anti-inflammatory activity compared with the known indomethacin [1]: comparable or superior to that of the known indomethacin

CC(C(=O)O)c1ccc2c(c1)SCC1CCCCC1C2=O (stereo not shown) [G, 2-(6,6a,7,8,9,10,10a,11-Octahydro-11-oxodibenzo[b,e]thiepin-3-yl)propionicacid-B]
inhibition in vivo at 10 mg/kg [1, 3]: 12% | inhibition in vivo at 20 mg/kg ([1]; 2 h, 20 mg/kg p.o., two hours, read-out: Inhibitory rate, two hours after the carrageenin injection): 18.3% | inhibition in vivo at 40 mg/kg [1, 11]: 33.2% | inhibition in vivo at 80 mg/kg [1, 7]: 32.2% | inhibition in vivo at 10 mg/kg [1, 5]: 7.1% | inhibition in vivo at 20 mg/kg ([1]; 3 h, 20 mg/kg p.o., three hours, read-out: Inhibitory rate, three hours after the carrageenin injection): 11% | inhibition in vivo at 40 mg/kg [1, 12]: 26.9% | inhibition in vivo at 80 mg/kg [1, 8]: 30.2% | anti-inflammatory activity compared with the known aspirin [1]: comparable or superior to that of the known aspirin

C=CCOC(=O)C(C)c1ccc2c(c1)SCC1CCCCC1C2=O (stereo not shown) [K, Allyl 2-(6,6a,7,8,9,10,10a,11-octahydro-11-oxodibenzo[b,e]thiepin-3-yl)propionate]
inhibition in vivo at 2 mg/kg [1, 4]: 27% | inhibition in vivo at 5 mg/kg [1, 13]: 34.3% | inhibition in vivo at 2 mg/kg [1, 6]: 22.3% | inhibition in vivo at 5 mg/kg [1, 14]: 33.5%

CC(C(=O)OCC(=O)c1ccccc1)c1ccc2c(c1)SCC1CCCCC1C2=O (stereo not shown) [M, Phenacyl 2-(6,6a,7,8,9,10,10a,11-octahydro-11-oxodibenzo[b,e]thiepin-3-yl)propionate]
inhibition in vivo at 5 mg/kg [1, 13]: 33.2% | inhibition in vivo at 5 mg/kg [1, 14]: 26.6%

CC(C(=O)OCCOCCO)c1ccc2c(c1)SCC1CCCCC1C2=O (stereo not shown) [N, 2-(2-Hydroxyethoxy)ethyl 2-(6,6a,7,8,9,10,10a,11-octahydro-11-oxodibenzo[b,e]thiepin-3-yl)propionate]
inhibition in vivo at 2 mg/kg [1, 4]: 15.8% | inhibition in vivo at 5 mg/kg [1, 13]: 43.9% | inhibition in vivo at 2 mg/kg [1, 6]: 13.2% | inhibition in vivo at 5 mg/kg [1, 14]: 28.1%

CC(C(=O)OCCN1CCOCC1)c1ccc2c(c1)SCC1CCCCC1C2=O (stereo not shown) [Q, 2-Morpholinoethyl 2-(6,6a,7,8,9,10,10a,11-octahydro-11-oxodibenzo[b,e]thiepin-3-yl)propionate]
inhibition in vivo at 2 mg/kg [1, 4]: 25.4% | inhibition in vivo at 5 mg/kg [1, 13]: 28.9% | inhibition in vivo at 2 mg/kg [1, 6]: 22.8% | inhibition in vivo at 5 mg/kg [1, 14]: 22%

CC(C(=O)NO)c1ccc2c(c1)SCC1CCCCC1C2=O (stereo not shown) [S, 2-(6,6a,7,8,9,10,10a,11-Octahydro-11-oxodibenzo[b,e]thiepin-3-yl)propionohydroxamic acid]
inhibition in vivo at 2 mg/kg [1, 4]: 21.9% | inhibition in vivo at 5 mg/kg [1, 13]: 31.5% | inhibition in vivo at 2 mg/kg [1, 6]: 18.5% | inhibition in vivo at 5 mg/kg [1, 14]: 29.9%

CC(C(=O)NCC(=O)O)c1ccc2c(c1)SCC1CCCCC1C2=O (stereo not shown) [T, N-Carboxymethyl-2-(6,6a,7,8,9,10,10a,11-octahydro-11-oxodibenzo[b,e]thiepin-3-yl)propionamide]
inhibition in vivo at 2 mg/kg [1, 4]: 19.9% | inhibition in vivo at 5 mg/kg [1, 13]: 43.9% | inhibition in vivo at 2 mg/kg [1, 6]: 15% | inhibition in vivo at 5 mg/kg [1, 14]: 28.1%
